Measurements published in patent publication US20140128402A1, “PHARMACEUTICAL COMBINATION” (IPCA Laboratories Limited, priority 2011, published 2014).

System: STZ-induced diabetic rats
Assay: Study No 2: body weight, water intake and food intake in STZ-induced diabetic rats
Assay type: in vivo, Wistar rats
Settings: for AVERAGE FOOD INTAKE / AVERAGE WATER INTAKE / Body Weight: oral
[1] = Day 0, HCQ 22.5, VG 6, SG 0.3 mg/kg alone, HCQ+VG 22.5+6, HCQ+SG 22.5+0.3 mg/kg/day
[2] = Day 0, HCQ 45, VG 12, SG 0.6 mg/kg alone, HCQ+VG 45+12, HCQ+SG 45+0.6 mg/kg/day
[3] = Day 7, HCQ 22.5, VG 6, SG 0.3 mg/kg alone, HCQ+VG 22.5+6, HCQ+SG 22.5+0.3 mg/kg/day
[4] = Day 7, HCQ 45, VG 12, SG 0.6 mg/kg alone, HCQ+VG 45+12, HCQ+SG 45+0.6 mg/kg/day
[5] = Day 14, HCQ 22.5, VG 6, SG 0.3 mg/kg alone, HCQ+VG 22.5+6, HCQ+SG 22.5+0.3 mg/kg/day
[6] = Day 14, HCQ 45, VG 12, SG 0.6 mg/kg alone, HCQ+VG 45+12, HCQ+SG 45+0.6 mg/kg/day
[7] = Day 21, HCQ 22.5, VG 6, SG 0.3 mg/kg alone, HCQ+VG 22.5+6, HCQ+SG 22.5+0.3 mg/kg/day
[8] = Day 21, HCQ 45, VG 12, SG 0.6 mg/kg alone, HCQ+VG 45+12, HCQ+SG 45+0.6 mg/kg/day
[9] = Day 28, HCQ 22.5, VG 6, SG 0.3 mg/kg alone, HCQ+VG 22.5+6, HCQ+SG 22.5+0.3 mg/kg/day
[10] = Day 28, HCQ 45, VG 12, SG 0.6 mg/kg alone, HCQ+VG 45+12, HCQ+SG 45+0.6 mg/kg/day

## CCN(CCO)CCCC(C)Nc1ccnc2cc(Cl)ccc12 (stereo not shown) [HCQ, Hydroxychloroquine]
[1]
  AVERAGE FOOD INTAKE: 11.45 g
  AVERAGE WATER INTAKE: 25.05 mL
  Body Weight: 199.83 ± 17.7 g
[2]
  AVERAGE FOOD INTAKE: 11.67 g
  AVERAGE WATER INTAKE: 23.88 mL
  Body Weight: 198 ± 11.03 g
[3]
  AVERAGE FOOD INTAKE: 13.35 g
  AVERAGE WATER INTAKE: 24.11 mL
  Body Weight: 190.67 ± 11.41 g
[4]
  AVERAGE FOOD INTAKE: 13.39 g
  AVERAGE WATER INTAKE: 22.41 mL
  Body Weight: 184.17 ± 9.99 g
[5]
  AVERAGE FOOD INTAKE: 11.95 g
  AVERAGE WATER INTAKE: 23.29 mL
  Body Weight: 196.17 ± 10.93 g
[6]
  AVERAGE FOOD INTAKE: 12.05 g
  AVERAGE WATER INTAKE: 21.55 mL
  Body Weight: 190.67 ± 9.56 g
[7]
  AVERAGE FOOD INTAKE: 13.00 g
  AVERAGE WATER INTAKE: 26.34 mL
  Body Weight: 199.67 ± 10.52 g
[8]
  AVERAGE FOOD INTAKE: 12.75 g
  AVERAGE WATER INTAKE: 26.22 mL
  Body Weight: 194.67 ± 9.52 g
[9]
  AVERAGE FOOD INTAKE: 14.11 g
  AVERAGE WATER INTAKE: 25.44 mL
  Body Weight: 201.17 ± 8.7 g
[10]
  AVERAGE FOOD INTAKE: 14.00 g
  AVERAGE WATER INTAKE: 25.79 mL
  Body Weight: 198.17 ± 9.15 g
monotherapies, p≦0.05
  body weight as compared to diabetic control group: significant increase
